The source made the active and inactive calls. How the calls were made is not given here.
Tested on: rodent lifetime carcinogenesis bioassay, tumor incidence TD50
Assay: carcinogenic potency in animals, long-term in vivo studies, CPDB compilation (AID 1745844)

`CCOC(=O)/C=C\C(=O)OCC` was tested, and the carcinogen call (rat, strain F344/DuCrj, males, in feed, site: forestomach, lesion: one or several types, types not named, dosed 51 weeks, study length 52 weeks) was “negative (inactive)”, the TD50 (rat, strain F344/DuCrj, males, in feed, site: forestomach, lesion: squamous-cell papilloma, dosed 104 weeks, study length 104 weeks) was 1070 mg/kg/day and the carcinogen call (rat, strain F344/DuCrj, males, in feed, site: stomach, glandular, lesion: one or several types, types not named, dosed 51 weeks, study length 52 weeks) was “negative (inactive)”.
`O=CNNc1nc(-c2ccco2)cs1` was tested, and the carcinogen call (rat, strain Sprague-Dawley, females, in feed, site: any site (literature study), lesion: several types, types named in the paper, dosed 46 weeks, study length 64 weeks) was “negative (inactive)”.
`CC(=O)Nc1ccc(-c2ccc(F)cc2)cc1` showed a TD50 (rat, strain Fischer 344, males, in feed, site: kidney, lesion: adenocarcinoma, dosed 52 weeks, study length 52 weeks) of 1.01 mg/kg/day.
`CC(=O)Nc1ccc(S(=O)(=O)c2ccc(NC(C)=O)cc2)cc1` gave a TD50 (rat, strain Buffalo, females, in feed, site: mammary gland, lesion: adenocarcinoma, dosed 43 weeks, study length 92 weeks) of 55.6 mg/kg/day.
With `ON=C1CCCC1` the TD50 (rat, strain Fischer 344, males, by gavage, site: liver, lesion: hepatocellular carcinoma, dosed 50 weeks, study length 83 weeks) was 70.7 mg/kg/day and the TD50 (rat, strain Fischer 344, males, by gavage, site: liver, lesion: several types, types named in the paper, dosed 50 weeks, study length 83 weeks) was 40.9 mg/kg/day.
`CC(O)CN(CC(C)O)N=O` (stereo not drawn) was tested, and the TD50 (rat, strain Fischer 344, females, in drinking water, site: esophagus, lesion: carcinoma, dosed 42 weeks, study length 55 weeks) was 1.25 mg/kg/day, the TD50 (rat, strain Fischer 344, females, in drinking water, site: esophagus, lesion: several types, types named in the paper, dosed 42 weeks, study length 55 weeks) was 0.813 mg/kg/day and the TD50 (rat, strain Fischer 344, females, in drinking water, site: nasal cavity, lesion: olfactory carcinoma, dosed 42 weeks, study length 55 weeks) was 3.04 mg/kg/day. It also gave a TD50 (rat, strain MRC-Wistar, males, by gavage, site: prostate, lesion: carcinoma, dosed 74 weeks, study length 74 weeks) of 437 mg/kg/day, a TD50 (rat, strain Wistar, males, in drinking water, site: liver, lesion: hemangioma, dosed 45 weeks, study length 52 weeks) of 4.55 mg/kg/day and a TD50 (rat, strain Wistar, males, in drinking water, site: liver, lesion: hepatocellular carcinoma, dosed 45 weeks, study length 52 weeks) of 2.4 mg/kg/day. The TD50 (rat, strain Wistar, males, in drinking water, site: lung, lesion: adenocarcinoma, dosed 45 weeks, study length 52 weeks) was 3.36 mg/kg/day, the TD50 (rat, strain Wistar, males, in drinking water, site: lung, lesion: adenoma, dosed 45 weeks, study length 52 weeks) was 0.881 mg/kg/day and the TD50 (rat, strain Wistar, males, in drinking water, site: lung, lesion: carcinoma, combined glandular and squamous type, dosed 45 weeks, study length 52 weeks) was 9.48 mg/kg/day.
Compound `C=CCN(N=O)C(N)=O` has a TD50 (rat, strain Fischer 344, females, by gavage, site: forestomach, lesion: one or several types, types not named, dosed 30 weeks, study length 104 weeks) of 0.476 mg/kg/day, a TD50 (rat, strain Fischer 344, females, by gavage, site: mammary gland, lesion: adenocarcinoma, dosed 30 weeks, study length 104 weeks) of 0.601 mg/kg/day and a TD50 (rat, strain Fischer 344, females, by gavage, site: uterus, lesion: several types, types named in the paper, dosed 30 weeks, study length 104 weeks) of 1.87 mg/kg/day. The TD50 (rat, strain Fischer 344, males, by gavage, site: Zymbal's gland, lesion: one or several types, types not named, dosed 30 weeks, study length 104 weeks) was 0.541 mg/kg/day, the TD50 (rat, strain Fischer 344, males, by gavage, site: colon, lesion: one or several types, types not named, dosed 30 weeks, study length 104 weeks) was 0.541 mg/kg/day and the TD50 (rat, strain Fischer 344, males, by gavage, site: forestomach, lesion: one or several types, types not named, dosed 30 weeks, study length 104 weeks) was 0.266 mg/kg/day. The TD50 (rat, strain Fischer 344, males, by gavage, site: lung, lesion: several types, types named in the paper, dosed 30 weeks, study length 104 weeks) was 0.421 mg/kg/day.
`CC=O` was tested, and the TD50 (hamster, strain Syrian Golden, females, inhaled, site: larynx, lesion: adenosquamous carcinoma, dosed 52 weeks, study length 81 weeks) was 1140 mg/kg/day, the TD50 (hamster, strain Syrian Golden, females, inhaled, site: larynx, lesion: several types, types named in the paper, dosed 52 weeks, study length 81 weeks) was 728 mg/kg/day and the TD50 (hamster, strain Syrian Golden, females, inhaled, site: larynx, lesion: squamous-cell carcinoma, dosed 52 weeks, study length 81 weeks) was 2360 mg/kg/day. The TD50 (hamster, strain Syrian Golden, males, inhaled, site: larynx, lesion: carcinoma, in situ, dosed 52 weeks, study length 81 weeks) was 641 mg/kg/day, the TD50 (hamster, strain Syrian Golden, males, inhaled, site: larynx, lesion: several types, types named in the paper, dosed 52 weeks, study length 81 weeks) was 461 mg/kg/day and the TD50 (hamster, strain Syrian Golden, males, inhaled, site: larynx, lesion: squamous-cell carcinoma, dosed 52 weeks, study length 81 weeks) was 2070 mg/kg/day. For the same compound, the TD50 (hamster, strain Syrian Golden, males, inhaled, site: nose, lesion: anaplastic carcinoma, dosed 52 weeks, study length 81 weeks) was 2070 mg/kg/day, the TD50 (hamster, strain Syrian Golden, males, inhaled, site: respiratory system, lesion: several types, types named in the paper, dosed 52 weeks, study length 81 weeks) was 461 mg/kg/day and the TD50 (rat, strain Wistar-random, females, inhaled, site: nasal mucosa, lesion: adenocarcinoma, dosed 50 weeks, study length 105 weeks) was 201 mg/kg/day. It also gave a TD50 (rat, strain Wistar-random, females, inhaled, site: nasal mucosa, lesion: several types, types named in the paper, dosed 50 weeks, study length 105 weeks) of 148 mg/kg/day, a TD50 (rat, strain Wistar-random, females, inhaled, site: nasal mucosa, lesion: squamous-cell carcinoma, dosed 50 weeks, study length 105 weeks) of 574 mg/kg/day and a TD50 (rat, strain Wistar-random, males, inhaled, site: nasal mucosa, lesion: adenocarcinoma, dosed 50 weeks, study length 105 weeks) of 190 mg/kg/day. It also gave a TD50 (rat, strain Wistar-random, males, inhaled, site: nasal mucosa, lesion: several types, types named in the paper, dosed 50 weeks, study length 105 weeks) of 88.5 mg/kg/day, a TD50 (rat, strain Wistar-random, males, inhaled, site: nasal mucosa, lesion: squamous-cell carcinoma, dosed 50 weeks, study length 105 weeks) of 200 mg/kg/day and a TD50 (rat, strain Wistar, females, inhaled, site: nose, lesion: adenocarcinoma, dosed 111 weeks, study length 121 weeks) of 370 mg/kg/day. The TD50 (rat, strain Wistar, females, inhaled, site: nose, lesion: carcinoma, in situ, dosed 111 weeks, study length 121 weeks) was 3000 mg/kg/day, the TD50 (rat, strain Wistar, females, inhaled, site: nose, lesion: squamous-cell carcinoma, dosed 111 weeks, study length 121 weeks) was 1030 mg/kg/day and the TD50 (rat, strain Wistar, males, inhaled, site: nose, lesion: adenocarcinoma, dosed 111 weeks, study length 121 weeks) was 185 mg/kg/day. It also gave a TD50 (rat, strain Wistar, males, inhaled, site: nose, lesion: squamous-cell carcinoma, dosed 111 weeks, study length 121 weeks) of 627 mg/kg/day.
